This note sets out measurements from paper PMC6070535, “Identification, Characterization, and X-ray Crystallographic Analysis of a Novel Type of Lectin AJLec from the Sea Anemone Anthopleura japonica” (Scientific Reports, 2018).

≈ marks a conversion by molar mass, not a printed value.

The target in one test is T1, AJLec (Anthopleura japonica, UniProt A0A2Z5WLM1).
T1 construct: mature 164 residues, 18,491 Da, precursor 186 residues; N-terminal pyroglutamate; disulfide-linked homodimer (36 kDa); Ca2+ dependent
T1 sequence (A0A2Z5WLM1 23-186): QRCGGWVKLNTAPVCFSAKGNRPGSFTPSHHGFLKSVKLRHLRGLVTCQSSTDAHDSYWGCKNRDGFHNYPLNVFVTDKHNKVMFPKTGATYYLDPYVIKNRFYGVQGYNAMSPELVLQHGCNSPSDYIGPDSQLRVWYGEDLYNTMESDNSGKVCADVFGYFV
The experiment in a line: hemagglutination inhibition, rabbit erythrocytes. The class given is cell-based. Particulars: 2.4–2.6 μg/mL AJLec, TBS-Ca2+. The text has this: hemagglutination inhibition, rabbit erythrocytes on AJLec
Turning to `CO[C@H]1O[C@H](CO)[C@@H](O)[C@H](O)[C@H]1O` [Me-α-Glc], the “Minimum inhibitory concentration” value is greater than 25000 µM.

As for `C[C@@H]1OC(O)[C@H](O)[C@H](O)[C@H]1O` (stereo partly drawn) [L-Rhamnose], the “Minimum inhibitory concentration” value was determined as 3000 µM (≈ 492 µg/mL).

Turning to `OC[C@H]1OC(O)[C@@H](O)[C@@H](O)[C@@H]1O` (stereo partly drawn) [D-Mannose], the “Minimum inhibitory concentration” value is greater than 25000 µM.

Turning to `OC[C@H]1O[C@H](OC[C@H]2OC(O)[C@H](O)[C@@H](O)[C@@H]2O)[C@H](O)[C@@H](O)[C@H]1O` (some centres unmarked) [Melibiose], the “Minimum inhibitory concentration” value amounted to 800 µM (≈ 274 µg/mL).

Take `OC[C@H]1OC(O)[C@H](O)[C@@H](O)[C@H]1O` (some centres unmarked) [Galactose]: the “Minimum inhibitory concentration” value came to 50 µM (≈ 9.01 µg/mL).

Consider `C[C@@H]1OC(O)[C@@H](O)[C@H](O)[C@@H]1O` (stereo partly drawn) [L-Fucose], for which the “Minimum inhibitory concentration” value came out at 3000 µM (≈ 492 µg/mL).

With `OC[C@H]1OC(O)[C@H](O)[C@@H](O)[C@@H]1O` (stereo partly drawn) [D-Glucose], the “Minimum inhibitory concentration” value was greater than 25000 µM.

In the case of `CO[C@H]1O[C@H](CO)[C@@H](O)[C@H](O)[C@@H]1O` [Me-α-Man], the “Minimum inhibitory concentration” value is greater than 25000 µM.

`CC(=O)N[C@H]1C(O)O[C@H](CO)[C@H](O)[C@@H]1O` (some centres unmarked) [N-Acetylgalactosamine]: the “Minimum inhibitory concentration” value turned out to be 25000 µM (≈ 5530 µg/mL).

For `OC[C@H]1O[C@@H](O[C@H]2[C@H](O)[C@@H](O)C(O)O[C@@H]2CO)[C@H](O)[C@@H](O)[C@H]1O` (some centres unmarked) [Lactose], the “Minimum inhibitory concentration” value was 100 µM (≈ 34.2 µg/mL).

In the case of `CO[C@@H]1O[C@H](CO)[C@H](O)[C@H](O)[C@H]1O` [Me-β-Gal], the “Minimum inhibitory concentration” value amounted to 400 µM (≈ 77.7 µg/mL).

Consider `OC[C@H]1O[C@H](O[C@H]2[C@H](O)[C@@H](O)C(O)O[C@@H]2CO)[C@H](O)[C@@H](O)[C@@H]1O` (some centres unmarked) [Maltose], for which the “Minimum inhibitory concentration” value worked out at 6300 µM (≈ 2160 µg/mL).

`OC[C@H]1O[C@@H](O[C@@H]2[C@@H](CO)OC(O)(CO)[C@H]2O)[C@H](O)[C@@H](O)[C@H]1O` (some centres unmarked) [Lactulose]: the “Minimum inhibitory concentration” value came out at 100 µM (≈ 34.2 µg/mL).

As to `OC[C@H]1O[C@H](OC[C@H]2O[C@H](O[C@]3(CO)O[C@H](CO)[C@@H](O)[C@@H]3O)[C@H](O)[C@@H](O)[C@@H]2O)[C@H](O)[C@@H](O)[C@H]1O` [Raffinose], the “Minimum inhibitory concentration” value is 800 µM (≈ 404 µg/mL).

On to `CO[C@H]1O[C@H](CO)[C@H](O)[C@H](O)[C@H]1O` [Me-α-Gal], for which the “Minimum inhibitory concentration” value turned out to be 800 µM (≈ 155 µg/mL).

As for `OC[C@H]1O[C@H](OC[C@H]2OC(O)(CO)[C@@H](O)[C@@H]2O)[C@H](O)[C@@H](O)[C@@H]1O` (some centres unmarked) [Palatinose], the “Minimum inhibitory concentration” value is 3100 µM (≈ 1060 µg/mL).

In the next test the target is AJLec (Anthopleura japonica Lectin) (Anthopleura japonica). The experiment in a line: crystal structure; AJLec with 100 mM lactose and 1 mM CaCl2 in TBS; vapor diffusion, 200 mM NaCl, 100 mM HEPES pH 7.5, 30% PEG 3350, 20 °C; two chains per asymmetric unit.
Conditions: not given
With “AJLec (Anthopleura japonica Lectin) (natural protein)”, the stoichiometry N (as a rule, a count of units in the complex or per binding partner) was 2.
